The text below walks through data of article PMC9114433 (Frontiers in Chemistry, 2022).

Where “and” joins values, the source holds several entries; their conditions need not be identical. Equal entries are not always repeated. Where two headings read alike, the source gives them in different places.

The target in data set [1] is T1, hHAO1 (Homo sapiens, UniProt Q9UJM8).
T1 sequence (Q9UJM8 1-368): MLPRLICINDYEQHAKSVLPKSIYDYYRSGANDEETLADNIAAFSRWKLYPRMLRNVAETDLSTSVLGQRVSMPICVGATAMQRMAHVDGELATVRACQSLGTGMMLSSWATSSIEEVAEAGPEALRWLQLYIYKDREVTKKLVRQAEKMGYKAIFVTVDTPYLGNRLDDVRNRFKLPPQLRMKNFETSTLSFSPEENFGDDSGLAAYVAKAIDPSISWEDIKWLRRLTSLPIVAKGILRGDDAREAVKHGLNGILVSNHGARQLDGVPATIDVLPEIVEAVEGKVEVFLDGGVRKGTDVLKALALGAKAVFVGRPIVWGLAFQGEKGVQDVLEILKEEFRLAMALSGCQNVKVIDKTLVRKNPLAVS
In words: Amplex Red fluorescence hydrogen peroxide activity assay. As to conditions: for Km: substrate titration, 30 nM hHAO1; for Vmax, Best-fit, 1 mM: Vmax in the presence of 1 mM compound, reaction rate as µM; for LLEAT (Astex lipophilic ligand efficiency score): from hHAO1 IC50; for fold increase in potency: relative to parent fragment scaffold (fragment 1 for 7, 8; fragment 2 for 9–12); for inhibition mode with respect to glycolate: glycolate 0–500 µM, compound 0–1 mM, best fitting model in GraphPad Prism; for 95% CI α / α (Best-fit): mixed model inhibition fit; for 95% CI α: 95% confidence interval; for α (Best-fit): ratio between αKi (enzyme-substrate complex) and Ki (free enzyme). Details: A hHAO1 construct, encoding residues Met1-Ser368, with an engineered N-terminal His6-tag; His6 (N); made in house; host or cells: E. coli BL21 (DE3). The class given is biochemical. Here is the method: hHAO1 activity in vitro was determined using the Amplex Red fluorescence hydrogen peroxide assay (Sigma Aldrich). […] The assay buffer contained 50 mM sodium phosphate, pH 7.4, 200 mM KCl, 2 mM MgCl2, and 0.01% TritonX. Determination of suitable assay parameters is described in the Supplementary Material. […] Following 10 min incubation at room temperature, 10 µl/well of Amplex Red reagent was added. […] All reactions were performed in technical triplicates for two different preparations of hHAO1. Reaction rate, defined as total H2O2 produced by the hHAO1 reaction, was determined from the H2O2 standard curve. […] This value is defined as the […] the inhibition constant for the free enzyme (Ki) and the inhibition constant for the enzyme-substrate complex (αKi) and can be related to the initial velocity (V0), substrate concentration ([S]), inhibitor concentration ([I]), and other kinetic parameters (Km, Vmax, Ki) as follows: V0 = Vmax [S]/(Km (1 + [I]/Ki) + [S](1 + [I]/(α∗Ki))). […]
6.2 Establishing parameters for Amplex Red activity assay
HAO1 activity was measured by coupling production of H2O2 by hHAO1 with the H2O2-dependent conversion of Amplex Red to its fluorescent product resorufin by […] peroxidase (Figure S7A).
To determine an incubation period resulting in measurements being made at initial rate conditions that also generated sufficient fluorescence signal, activity of 30 nM hHAO1 in the presence of 30 μM glycolate was measured every 1.5 minutes for a period of 60 minutes ([…]).
To confirm recombinant hHAO1 used in this work was active, the reaction rate of 30 nM hHAO1 was measured across a range of glycolate (Figure S7C) and 2-hydroxypalmitate (Figure S7D) concentrations.
(1 picture or pasted object on this page, not shown here)
Figure S8: Set-up of hHAO1 Amplex Red activity assay. (A) Schematic showing how hHAO1 activity is measured using the Amplex Red assay. (B) Plot of reaction rate (hydrogen peroxide […], µM) of 30 nM hHAO1 over time (minutes) in the presence of 30 µM glycolate. (C) Plot of relative fluorescence versus hydrogen peroxide concentration showing the standard curve fitted within the linear range of the Amplex Red reagent. (D) Michaelis-Menten plot of glycolate concentration versus reaction rate for 30 nM hHAO1. Inset: chemical structure of glycolate. (E) Michaelis-Menten plot of 2-hydroxypalmitate concentration versus reaction rate for 30 nM hHAO1. Inset: chemical structure of 2-hydroxypalmitate.

In data set [2] the target is T1, hHAO1. Particulars: read-out: Km (substrate), published value; ref Wang et al. 2016; cited from earlier work.
For data set [3], the system named is rat LCHAO (equivalent to hHAO2). Also noted: method as in Chen et al., 2012. As to conditions: ref Chen et al., 2012; cited from earlier work.
A further data set deals with mGO. Also noted: method as in ref Martin-Higueras, Luis-Lima, and Salido 2016; Moya-Garzón et al., 2018. Particulars: purified mGO; ref Martin-Higueras, Luis-Lima, and Salido 2016; Moya-Garzón et al., 2018; cited from earlier work.
For data set [4], the target named is flavin dehydrogenase domain of yeast flavocytochrome b2. Details: method as in Chen et al., 2012. Particulars: ref Chen et al., 2012; cited from earlier work.
Another data set has as its system HAO. Details: method as in ref Chen et al., 2012; Martin-Higueras, Luis-Lima, and Salido 2016. Particulars: published kinetics against mGO, rat LCHAO, yeast flavocytochrome b2, hHAO1; ref Chen et al., 2012; Martin-Higueras, Luis-Lima, and Salido 2016; cited from earlier work.
Setting [5] is: 30 nM hHAO1, 30 µM glycolate, log(inhibitor) vs response fit, read-out: IC50 (Best-fit).
Setting [6] is: 30 µM glycolate, 95% confidence interval of fit, read-out: 95% CI IC50.
Where [7] appears, read: 95% confidence interval of fit, read-out: 95% CI Ki.
The mark [8] stands for this setting: compound 0–1 mM vs glycolate 0–500 µM, read-out: Ki (Best-fit).
[9] abbreviates: at 1 mM compound, glycolate titration.

Consider `O=C(O)CO` [glycolate], for which the Km on hHAO1 [1] (read-out: Km (substrate)) is 18.9 ± 0.8 µM; on hHAO1 [2], 74.5 µM.

On to `Cn1cc(N)c(=O)n(C)c1=O` [Compound 10], for which the IC50 on hHAO1 [1] (setting [5]) was 60 µM and 59.8 µM; at hHAO1 [1] (setting [6]), 39.5 to 92 µM. Further, the Ki was 157 to 177 µM on hHAO1 [1] (setting [7]) and 167 µM at hHAO1 [1] (setting [8]). The “Vmax, Best-fit, 1 mM” value on hHAO1 [1] is 56.47 µM. For the same compound, on hHAO1 [1], the “LLEAT (Astex lipophilic ligand efficiency score)” value (“LLEAT” for short) is on record as 0.77 kcal/mol. Also, on hHAO1 [1], the “fold increase in potency” value was “more than 10 fold”.

Regarding `Cn1cc(N)c(=O)[nH]c1=O` [Compound 11], the IC50 was 40 µM and 39.8 µM on hHAO1 [1] (setting [5]); 22.8 to 71.1 µM at hHAO1 [1] (setting [6]). The results for the Ki on hHAO1 [1] (setting [7]) and at hHAO1 [1] (setting [8]) were 219 to 248 µM and 233 µM, respectively. Moreover, the “Vmax, Best-fit, 1 mM” value on hHAO1 [1] was determined as 55.85 µM. For the same compound, the “LLEAT” value at hHAO1 [1] came to 0.88 kcal/mol. The “fold increase in potency” value at hHAO1 [1] is reported as “more than 10 fold”.

Compound `O=C(C1CC1)N1CCN(c2ccc(F)cc2)CC1` [Fragment 3] yielded an inhibition at 1000 µM on hHAO1 [1] (1 mM fragment) of 2%. On hHAO1 [1] (10 mM fragment), the inhibition at 10000 µM stood at 19%.

Consider `O=C(Nc1cccnc1)N1CCN(c2ccccc2O)CC1` [Compound 13], for which, at hHAO1 [1] (setting [5]), the IC50 was 44 µM and 43.8 µM. Besides, the IC50 at hHAO1 [1] (setting [6]) is 27.4 to 71.4 µM. For the same compound, the inhibition constant Ki on hHAO1 [1] (setting [7]) was in the range of 59.1 to 82.9 µM. Also, on hHAO1 [1], the “Vmax, Best-fit, 1 mM” value was determined as 27.28 µM; the “LLEAT” value was determined as 0.30 kcal/mol; the “inhibition mode with respect to glycolate” value is “mixed model inhibition”; the “95% CI α” value was 7.84–27.32. Besides, the “α (Best-fit)” value on hHAO1 [1] turned out to be 13.27. In addition, the “fold increase in Km” value on hHAO1 [1] (setting [9]) is reported as “up to 4 fold”. In addition, the Ki at hHAO1 [1] (setting [8]) came out at 69.7 µM.

For the compound `CC1=NC(=O)NC(=O)C1N` (centres unmarked) [Compound 12], the IC50 at hHAO1 [1] (setting [5]) is 27 µM and 27.4 µM; at hHAO1 [1] (setting [6]) it was 19.9 to 38 µM. For the same compound, the Ki at hHAO1 [1] (setting [7]) is 141 to 156 µM; on hHAO1 [1] (setting [8]), 148 µM. The “Vmax, Best-fit, 1 mM” value at hHAO1 [1] is recorded as 54.05 µM. Besides, on hHAO1 [1], the “LLEAT” value was 0.89 kcal/mol. Moreover, the “fold increase in potency” value at hHAO1 [1] was “more than 10 fold”.

`Cn1nc(C(N)=O)c2ccccc21` [Fragment 1]: the IC50 on hHAO1 [1] (setting [5]) was determined as 420 µM.

In the case of `Nc1c(C(=O)O)[nH]c(=O)[nH]c1=O` [Compound 9], the IC50 on hHAO1 [1] (setting [5]) is 93 µM and 93.3 µM. Moreover, the IC50 on hHAO1 [1] (setting [6]) was in the range of 48.1 to 193 µM. On hHAO1 [1] (setting [7]), the Ki was in the range of 113 to 126 µM. At hHAO1 [1], the “Vmax, Best-fit, 1 mM” value worked out at 56.25 µM; the “LLEAT” value is 0.71 kcal/mol; the “fold increase in potency” value was “more than 10 fold”. In addition, the Ki on hHAO1 [1] (setting [8]) was 119 µM. At hHAO1 [1] (relative to compound 12), this compound returned a fold lower potency of 3 fold.

With `Cc1cc(NC(=O)N2CCN(c3cccc(O)c3)CC2)no1` [Compound 14], the IC50 on hHAO1 [1] (setting [5]) was determined as 158 µM. The IC50 at hHAO1 [1] (setting [6]) lay in the range of 100 to 256 µM. Further, the Ki at hHAO1 [1] (setting [7]) lay within 83.1 to 119 µM. Further, on hHAO1 [1], the “Vmax, Best-fit, 1 mM” value turned out to be 43.12 µM; the “LLEAT” value was found to be 0.25 kcal/mol; the “inhibition mode with respect to glycolate” value is “mixed model inhibition”; the “95% CI α” value is listed as 9.41–59.28. Besides, on hHAO1 [1], the “α (Best-fit)” value was 18 and 18.4. Besides, on hHAO1 [1] (setting [9]), the “fold increase in Km” value is recorded as “up to 4.9 fold” and the “fold reduction in Vmax” value is given as “up to 1.7 fold”. For the same compound, on hHAO1 [1] (setting [8]), the inhibitory constant (Ki) stood at 98.9 µM.

Regarding `O=C(O)c1nnsc1Sc1ccc(Cl)cc1` [CCPST, 4-carboxy-5-[(4-chlorophenyl)sulfanyl]-1,2,3-thiadiazole], the IC50 in data set [3] was 3.6 µM; in the data set with mGO, 43 to 198 µM; in data set [4], 6 µM. In addition, at hHAO1 [1], the “inhibition mode with respect to glycolate” value was “competitive inhibition mode”. Besides, the inhibition mode result with HAO is reported as “non-competitive inhibition mode”.

Take `O=C(NO)c1n[nH]c2ccccc12` [Compound 7]: the IC50 at hHAO1 [1] (setting [5]) worked out at 153 µM. The IC50 on hHAO1 [1] (setting [6]) fell in the range of 110 to 215 µM. For the same compound, the Ki at hHAO1 [1] (setting [7]) fell in the range of 56.7 to 64.2 µM. Further, on hHAO1 [1], the “Vmax, Best-fit, 1 mM” value is 47.76 µM; the “LLEAT” value stood at 0.40 kcal/mol; the “fold increase in potency” value is given as 5 fold. In addition, the Ki at hHAO1 [1] (setting [8]) was determined as 60.4 µM.

`CCCCCCCCCCCCCCC(O)C(=O)O` (centres unmarked) [2-hydroxypalmitate]: the “fold higher Km” value on hHAO1 [1] (relative to glycolate) amounted to 100 fold. At hHAO1 [1] (read-out: Km apparent (substrate)), the Km turned out to be 1200 ± 400 µM.

Regarding `NCCNC(=O)c1n[nH]c2ccccc12` [Compound 8], the IC50 at hHAO1 [1] (setting [5]) is 81 µM and 81.3 µM. The IC50 at hHAO1 [1] (setting [6]) lay in the range of 57.1 to 117 µM. The Ki at hHAO1 [1] (setting [7]) was 37.7 to 44.3 µM. At hHAO1 [1], the “Vmax, Best-fit, 1 mM” value stood at 54.60 µM; the “LLEAT” value came to 0.47 kcal/mol; the “inhibition mode with respect to glycolate” value is “competitive inhibition”; the “fold increase in potency” value came out at 5 fold. The Ki on hHAO1 [1] (setting [8]) came to 40.9 µM.

As usually defined, the Km is the concentration of substrate that gives half-maximal velocity. Broadly, the IC50 is the concentration needed to halve the response being measured. Broadly, the Ki is a dissociation constant, usually derived from enzyme kinetics or from competition with a known ligand. One may read the inhibition as the drop in the measured response relative to a control, in per cent. A higher inhibition goes with strong suppression.
